The text below walks through data of PubChem BioAssay AID504329 (Southern Research Specialized Biocontainment Screening …, 2011).

The assay concerns NS1A functional cell-based assay, percent inhibition. The experiment in a line: NS1A inhibition, H1N1 influenza, cell based functional assay (AID 504329).

On to `C#CCOCCOCCOCCNc1nc(N2CCN(C(=O)CCCCCCCCCCNC(=O)[C@H]([C@@H](C)CC)n3cc(CCCCN=C(N)N)nn3)CC2)nc(N2CCN(C(=O)CCCCCCCCCCNC(=O)[C@H](CO)n3cc(CCCCCN)nn3)CC2)n1`, for which the IC50 was 16.1 µM.
In the case of `CN(C)c1ccnc2c[cH-]cc12.[Fe].c1ccc(-[c-]2[c-](-c3ccccc3)[c-](-c3ccccc3)[c-](-c3ccccc3)[c-]2-c2ccccc2)cc1` (configuration not stated) it was 9.29 µM.
